Data published in the supplement of paper PMC10307832.

What was measured:
Assay in all cases: relative viability (nuclei count vs DMSO), 5 days (fraction); higher = more cells survive
17-AAG + Decitabine = compound: C=CCNC1=C2C[C@@H](C)C[C@H](OC)[C@H](O)[C@@H](C)/C=C(\C)[C@H](OC(N)=O)[C@@H](OC)/C=C\C=C(/C)C(=O)NC(=CC1=O)C2=O [17-AAG] + Nc1ncn([C@H]2C[C@H](O)[C@@H](CO)O2)c(=O)n1 [Decitabine] (partner 2 µM)
Outline: (§1)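 Each reported value is a median over duplicate plates. It expresses relative viability: treated-well nuclei count divided by vehicle-well nuclei count. Lung cancer cell lines in 1536-well plates were dosed by pin tool a day after seeding, alone with one drug or with a fixed anchor-drug dose plus five library-drug doses (not always all listed) in √10 steps, and nuclei were counted after 5 days.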

17-AAG + Crizotinib = compound: C=CCNC1=C2C[C@@H](C)C[C@H](OC)[C@H](O)[C@@H](C)/C=C(\C)[C@H](OC(N)=O)[C@@H](OC)/C=C\C=C(/C)C(=O)NC(=CC1=O)C2=O [17-AAG] + C[C@@H](Oc1cc(-c2cnn(C3CCNCC3)c2)cnc1N)c1c(Cl)ccc(F)c1Cl [Crizotinib] (partner 1 µM)
Outline: as §1

17-AAG + Phenformin = compound: C=CCNC1=C2C[C@@H](C)C[C@H](OC)[C@H](O)[C@@H](C)/C=C(\C)[C@H](OC(N)=O)[C@@H](OC)/C=C\C=C(/C)C(=O)NC(=CC1=O)C2=O [17-AAG] + N=C(N)NC(=N)NCCc1ccccc1 [Phenformin] (partner 250 µM)
Outline: as §1

17-AAG + Navitoclax = compound: C=CCNC1=C2C[C@@H](C)C[C@H](OC)[C@H](O)[C@@H](C)/C=C(\C)[C@H](OC(N)=O)[C@@H](OC)/C=C\C=C(/C)C(=O)NC(=CC1=O)C2=O [17-AAG] + CC1(C)CCC(c2ccc(Cl)cc2)=C(CN2CCN(c3ccc(C(=O)NS(=O)(=O)c4ccc(N[C@H](CCN5CCOCC5)CSc5ccccc5)c(S(=O)(=O)C(F)(F)F)c4)cc3)CC2)C1 [Navitoclax] (partner 0.5 µM)
Outline: as §1

Cell Line	relative viability (17-AAG + Decitabine; first compound 0.00128 µM)	relative viability (17-AAG + Decitabine; first compound 0.004048 µM)	relative viability (17-AAG + Decitabine; first compound 0.0128 µM)	relative viability (17-AAG + Decitabine; first compound 0.04048 µM)	relative viability (17-AAG + Decitabine; first compound 0.128 µM)	relative viability (17-AAG + Crizotinib; first compound 0.00128 µM)	relative viability (17-AAG + Crizotinib; first compound 0.004048 µM)	relative viability (17-AAG + Crizotinib; first compound 0.0128 µM)	relative viability (17-AAG + Crizotinib; first compound 0.04048 µM)	relative viability (17-AAG + Crizotinib; first compound 0.128 µM)	relative viability (17-AAG + Phenformin; first compound 0.00128 µM)	relative viability (17-AAG + Phenformin; first compound 0.004048 µM)	relative viability (17-AAG + Phenformin; first compound 0.0128 µM)	relative viability (17-AAG + Phenformin; first compound 0.04048 µM)	relative viability (17-AAG + Phenformin; first compound 0.128 µM)	relative viability (17-AAG + Navitoclax; first compound 0.00128 µM)	relative viability (17-AAG + Navitoclax; first compound 0.004048 µM)	relative viability (17-AAG + Navitoclax; first compound 0.0128 µM)	relative viability (17-AAG + Navitoclax; first compound 0.04048 µM)	relative viability (17-AAG + Navitoclax; first compound 0.128 µM)
NCI-H727	0.871	0.915	0.875	0.538	0.411	0.968	0.74	0.586	0.191	0.188	0.535	0.445	0.475	0.287	0.277	0.426	0.455	0.214	0.206	0.226
NCI-H838	0.405	0.45	0.217	0.195	0.2	0.748	0.729	0.259	0.118	0.112	0.543	0.327	0.118	0.132	0.0945	1.15	1.12	1.07	0.165	0.166
NCI-H1355	0.35	0.345	0.361	0.246	0.183	1.03	1.1	1.1	0.93	0.287	0.492	0.457	0.388	0.186	0.165	0.927	0.944	0.958	0.449	0.373
NCI-H1437	0.531	0.636	0.504	0.311	0.241	0.976	0.806	0.378	0.126	0.0903	0.312	0.316	0.179	0.153	0.129	1.11	0.939	0.936	0.162	0.132
NCI-H1650	0.384	0.33	0.185	0.165	0.134	1.01	0.659	0.136	0.179	0.126	0.294	0.15	0.146	0.147	0.157	1.19	0.782	0.407	0.181	0.171
NCI-H1651	0.389	0.68	0.481	0.362	0.179	0.828	0.82	0.828	0.827	0.571	0.335	0.548	0.242	0.151	0.107	1.05	0.882	1.01	0.214	0.148
NCI-H1666	0.74	0.804	0.641	0.364	0.363	1.04	0.853	0.288	0.305	0.215	0.547	0.56	0.432	0.316	0.329	0.958	0.699	0.277	0.314	0.236
NCI-H1734	0.502	0.536	0.46	0.242	0.142	0.647	0.681	0.646	0.195	0.142	0.371	0.368	0.305	0.142	0.118	0.871	0.811	0.756	0.24	0.114
NCI-H1755	0.695	0.772	0.671	0.643	0.391	0.888	0.841	0.84	0.588	0.209	0.622	0.57	0.578	0.254	0.0941	1.01	1	0.957	0.8	0.315
NCI-H1792	0.444	0.345	0.194	0.12	0.0575	0.997	1.02	0.897	0.848	0.19	0.338	0.216	0.066	0.0797	0.0405	0.592	0.675	0.523	0.477	0.115
NCI-H1915	0.259	0.271	0.263	0.25	0.0807	0.89	0.899	0.871	0.878	0.223	0.358	0.372	0.308	0.106	0.0928	0.763	0.754	0.797	0.771	0.409
NCI-H1944	0.418	0.445	0.441	0.357	0.163	1.01	1.18	1.02	0.799	0.289	0.187	0.194	0.127	0.12	0.114	1.05	1.05	1.02	0.948	0.372
NCI-H1975	0.378	0.396	0.266	0.175	0.14	0.951	0.825	0.218	0.163	0.126	0.385	0.287	0.204	0.13	0.0987	1.23	0.928	0.453	0.186	0.145
NCI-H1993	0.609	0.606	0.544	0.408	0.348	0.932	0.969	0.899	0.537	0.403	0.507	0.451	0.472	0.397	0.404	0.904	0.933	0.529	0.564	0.441
NCI-H2009	0.421	0.398	0.342	0.265	0.134	1.12	1.01	0.99	0.496	0.0881	0.499	0.43	0.481	0.412	0.128	1.1	1.09	1.07	0.884	0.369
